Publication PMC10746280, “Bacterial efflux pump modulators prevent bacterial growth in macrophages and under broth conditions that mimic the host environment” (mBio, 2023)

Legend:
[1] = test system: S. Typhimurium SL1344 (sifB::gfp) in RAW 264.7 macrophages; experiment: SAFIRE macrophage assay: intracellular bacterial load (GFP signal within macrophages); assay type: cell-based, Salmonella enterica serotype Typhimurium; conditions: for 5 uM Avg Antibacterial Score / 25 uM Avg Antibacterial Score: 'Toxic' given instead of a score; for IC50: Salmonella enterica, TYPHIMURIUM, RAW264.7, read-out: SAFIRE IC50
How it was run: (§1)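 RAW 264.7 macrophages infected with S. Typhimurium SL1344 sifB::gfp (MOI ~30), gentamicin 40 µg/mL, then compound from 2 h to 18 h post-infection. Confocal imaging with MitoTracker and DAPI; toxicity as adherent MitoTracker-positive macrophage count, bacterial load as GFP+ macrophage area.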

RAW 264.7 macrophages = experiment: SAFIRE macrophage assay: host toxicity (adherent macrophage count, morphology); assay type: cell-based
How it was run: as §1

SMILES | 5 uM Avg Antibacterial Score [1] | 25 uM Avg Antibacterial Score [1] | 5 uM Avg Cell # Score (RAW 264.7 macrophages) | 25 uM Avg Cell # Score (RAW 264.7 macrophages) | IC50 [1] [nM] | toxicity to infected macrophages in SAFIRE (RAW 264.7 macrophages; 16 h after treatment)
O[C@@H](COc1ccc(Cl)c(Cl)c1)CN1CCC(Nc2nccc(C(F)(F)F)n2)CC1 [CU138] | 7 | Toxic | 85 | 75 | – | –
OC(COc1ccccc1F)CN1CCC(Nc2nccc(C(F)(F)F)n2)C1 (centres unmarked) [CU139] | 99 | 28 | 95 | 73 | – | –
OC(COc1ccc(Cl)cc1)CN1CCC(NC2CC2)C1 (centres unmarked) [CU140] | 87 | 73 | 122 | 130 | – | –
OC(COc1ccccc1Cl)CN1CCC(NC2CC2)C1 (centres unmarked) [CU141] | 81 | 79 | 116 | 137 | – | –
CN(C)C1CCN(CC(O)COc2ccc(Cl)c(Cl)c2)C1 (centres unmarked) [CU142] | 77 | 47 | 104 | 113 | – | –
CN(CC(O)COc1ccc(Cl)c(Cl)c1)C1CCNC1 (centres unmarked) [CU143] | 84 | 55 | 113 | 117 | – | –
NC1CCCN(CC(O)COc2ccc(Cl)c(Cl)c2)C1 (centres unmarked) [CU144] | 63 | 29 | 99 | 105 | – | –
OC(COc1ccc(Cl)c(Cl)c1)CN1CCCNCC1 (centres unmarked) [CU145] | 69 | 39 | 94 | 120 | – | –
O=C1OC(COc2ccc(Cl)c(Cl)c2)CN1C1CCNC1 (centres unmarked) [CU146] | 89 | 51 | 95 | 117 | – | –
CSc1ccc(OCC(O)CN2CCC(Nc3nccc(C(F)(F)F)n3)CC2)cc1 (centres unmarked) [CU147] | 72 | Toxic | 121 | 43 | – | –
Cc1ccc(Cl)c(OCC(O)CN2CCC(Nc3nccc(C(F)(F)F)n3)CC2)c1 (centres unmarked) [CU148] | 48 | Toxic | 123 | 39 | – | –
OC(COc1ccc(Cl)c(Cl)c1)CN1CCC2(CCN2)C1 (centres unmarked) [CU149] | 73 | 53 | 128 | 108 | – | –
NC1CCN(CC(O)COc2ccccc2)C1 (centres unmarked) [CU151] | 108 | 91 | 128 | 147 | – | –
COc1ccc(OCC(O)CN2CCC(N)C2)cc1 (centres unmarked) [CU152] | 103 | 91 | 116 | 142 | – | –
NC1CCN(CC(O)COc2ccc(F)cc2)C1 (centres unmarked) [CU153] | 106 | 85 | 103 | 131 | – | –
N#Cc1ccc(OCC(O)CN2CCC(N)C2)cc1 (centres unmarked) [CU154] | 112 | 111 | 99 | 123 | – | –
OC(CNCc1csc(Cl)c1)COc1ccc(Cl)c(Cl)c1 (centres unmarked) [CU155] | 107 | Toxic | 95 | 78 | – | –
OC(COc1ccc(Cl)c(Cl)c1)CN1CCn2cnnc2C1 (centres unmarked) [CU156] | 110 | 107 | 97 | 124 | – | –
OC(COc1ccc(Cl)c(Cl)c1)CN1CCn2c([3F])nnc2C1 (centres unmarked) [CU157] | 115 | 109 | 109 | 106 | – | –
OC(COc1ccc(Cl)c(Cl)c1)CN1CCC(Oc2ncccn2)CC1 (centres unmarked) [CU158] | 110 | 61 | 106 | 103 | – | –
OC(CNC1Cc2ccccc2C1)COc1ccc(Cl)c(Cl)c1 (centres unmarked) [CU159] | 102 | Toxic | 117 | 97 | – | –
NC1CCN(C[C@H](O)COc2ccc(Cl)c(Cl)c2)C1 (some centres unmarked) [CU160] | 51 | 35 | 137 | 129 | 2.6 | –
NC1CCN(C[C@@H](O)COc2ccc(Cl)c(Cl)c2)C1 (some centres unmarked) [CU161] | 55 | 33 | 138 | 113 | 81.4 | non-toxic
